Assay results taken from patent US20160143884A1, “USE OF TETRAHYDROINDAZOLYLBENZAMIDE AND TETRAHYDROINDOLYLBENZAMIDE DERIVATIVES FOR THE TREATMENT OF HUMAN IMMUNODEFICIENCY VIRUS (HIV) AND ACQUIRED IMMUNE DEFICIENCY SYNDROME (AIDS)” (Esanex, Inc., priority 2014, published 2016).

Assays:
[1] = system: HIV-1Ba-L; assay: Anti-HIV efficacy evaluation in fresh human PBMCs (reverse transcriptase activity readout); assay type: cell-based
Description: Anti-HIV Efficacy Evaluation in Fresh Human PBMCs Assay Protocol:
Fresh human PBMCs, seronegative for HIV and HBV, are isolated from screened donors (Biological Specialty Corporation, Colmar, Pa.). Cells are pelleted/washed 2-3 times by low speed centrifugation and re-suspension in PBS to remove contaminating platelets. […] Banded PBMCs are gently aspirated from the resulting interface and subsequently washed 2× with PBS by low speed centrifugation. […] The cells are allowed to incubate for 48-72 hours at 37° C. […] IL-2 is included in the culture medium to maintain the cell division initiated by the PHA mitogenic stimulation. PBMCs are maintained in this medium at a concentration of 1-2×10^6 cells/mL with biweekly medium changes until used in the assay protocol. Cells are kept in culture for a maximum of two weeks before being deemed too old for use in assays and discarded. MDMs are depleted from the culture as the result of adherence to the tissue culture flask.
For the standard PBMC assay, PHA stimulated cells from at least two normal donors are pooled (mixed together), diluted in fresh medium to a final concentration of 1×10^6 cells/mL, and plated in the interior wells of a 96 well round bottom microplate at 50 uL/well (5×10^4 cells/well) in a standard format developed by the Infectious Disease Research department of Southern Research Institute. Pooling (mixing) of mononuclear cells from more than one donor is used to minimize the variability observed between individual donors, which results from quantitative and qualitative differences in HIV infection and overall response to the PHA and IL-2 of primary lymphocyte populations. Each plate contains virus/cell control wells (cells plus virus), experimental wells (drug plus cells plus virus) and compound control wells (drug plus media without cells, necessary for MTS monitoring of cytotoxicity). […] Therefore, infected wells are used in the assessment of both antiviral activity and cytotoxicity. Test drug dilutions are prepared at a 2× concentration in microtiter tubes and 100 μL of each concentration (nine total concentrations) are placed in appropriate wells using the standard format. 50 μL of a predetermined dilution of virus stock is placed in each test well (final MOI˜=0.1). The PBMC cultures are maintained for seven days following infection at 37° C., 5% CO2. After this period, cell-free supernatant samples are collected for analysis of reverse transcriptase activity and/or p24 antigen content. Following removal of supernatant samples, compound cytotoxicity is measured by addition of MTS to the plates for determination of cell viability. Wells are also examined microscopically and any abnormalities are noted.
Reverse Transcriptase Activity Assay Protocol:
Tritiated thymidine triphosphate (^3H-TTP, 80 Ci/mmol, NEN) is received in 1:1 dH2O:Ethanol at 1 mCi/mL. Poly rA:oligo dT template:primer (GE Healthcare) is prepared as a stock solution by combining 150 μL poly rA (20 mg/mL) with 0.5 mL oligo dT (20 units/mL) and 5.35 mL sterile dH2O followed by aliquoting (1.0 mL) and storage at −20° C. The RT reaction buffer is prepared fresh on a daily basis and consists of 125 μL 1.0 M EGTA, 125 μL dH2O, 125 μL 20% Triton X100, 50 μL 1.0 M Tris (pH 7.4), 50 μL 1.0 M DTT, and 40 μL 1.0 M MgCl2. The final reaction mixture is prepared by combining 1 part ^3H-TTP, 4 parts dH2O, 2.5 parts poly rA:oligo dT stock and 2.5 parts reaction buffer. Ten microliters of this reaction mixture is placed in a round bottom microtiter plate and 15 μL of virus containing supernatant is added and mixed. The plate is incubated at 37° C. for 60 minutes. Following incubation, the reaction volume is spotted onto DE81 filter-mats (Wallac), washed 5 times for 5 minutes each in a 5% sodium phosphate buffer or 2×SSC (Life Technologies).

[2] = system: Hepatitis B Virus (HBV); assay: Anti-HBV assay, real-time qPCR of extracellular HBV DNA in HepG2 2.2.15; assay type: cell-based
Description: The anti-HBV assay employed real-time qPCR (TaqMan) to directly measure extracellular HBV DNA copy number. HepG2-2.2.15 cells were plated in 96-well microtiter plates. Only the interior wells were utilized to reduce “edge effects” observed during cell culture; the exterior wells were filled with complete medium to help minimize sample evaporation. After 16-24 hours the confluent monolayer of HepG2-2.2.15 cells was washed and the medium replaced with complete medium containing various concentrations of a test compound in triplicate. 3TC was used as positive control, while media alone was added to cells as negative control (virus control, VC). Three days later the culture medium was replaced with fresh medium containing the appropriately diluted drug. Six days following the initial administration of the test compound, the cell culture supernatant collected, treated with pronase and then used in a real-time quantitative TaqMan qPCR assay. The PCR-amplified HBV DNA was detected in real-time by monitoring increases in fluorescence signals that result from the exonucleolytic degradation of a quenched fluorescent probe molecule that hybridizes to the amplified HBV DNA. For each PCR amplification, a standard curve was simultaneously generated using dilutions of purified HBV DNA. Antiviral activity was calculated from the reduction in HBV DNA levels (IC50). CellTiter 96® AQueous One Solution Cell Proliferation Assay kit (Promega) was employed to measure cell viability which was used to calculate cytotoxicity (TC50). The therapeutic index (TI) was calculated as TC50/IC50.

[3] = Cell viability (CellTiter 96 AQueous One) in HepG2 2.2.15; assay type: cell-based; settings: human, HepG2-2.2.15 cells, read-out: Cytotoxicity TC50
Description: The anti-HBV assay employed real-time qPCR (TaqMan) to directly measure extracellular HBV DNA copy number. HepG2-2.2.15 cells were plated in 96-well microtiter plates. Only the interior wells were utilized to reduce “edge effects” observed during cell culture; the exterior wells were filled with complete medium to help minimize sample evaporation. After 16-24 hours the confluent monolayer of HepG2-2.2.15 cells was washed and the medium replaced with complete medium containing various concentrations of a test compound in triplicate. 3TC was used as positive control, while media alone was added to cells as negative control (virus control, VC). Three days later the culture medium was replaced with fresh medium containing the appropriately diluted drug. Six days following the initial administration of the test compound, the cell culture supernatant collected, treated with pronase and then used in a real-time quantitative TaqMan qPCR assay. The PCR-amplified HBV DNA was detected in real-time by monitoring increases in fluorescence signals that result from the exonucleolytic degradation of a quenched fluorescent probe molecule that hybridizes to the amplified HBV DNA. […] Antiviral activity was calculated from the reduction in HBV DNA levels (IC50). […] The therapeutic index (TI) was calculated as TC50/IC50.

[4] = system: VSVg-pseudotyped NL4-3.Luc.E-R- virus; assay: microbe, parasite or virus in culture; assay type: cell-based, HIV-1; settings: Human immunodeficiency virus 1, NL43, SUP-T1, read-out: EC50 of inhibition of HIV replication
[5] = system: Tat-mediated activation of the HIV-LTR promoter; assay: TAT-mediated transactivation, HIV-LTR-Luc reporter; assay type: cell-based, HIV-1
Description: SupT1 cells were transfected with a HIV-LTR-Luc construct (LAI), +/−Tat (pcTAT, subtype B), along with a constitutively active renilla-luciferase construct (to normalize for transfection efficiency). Firefly and renilla activity were monitored (sequentially, same sample) 24 hours post transfection. DMSO was used as a negative control; and Compound 9 was added at 1, 0.1, and 0.001 μM. These reactions were done in singlet (pilot). TZM-bl cells are HeLa derived cells that contain CD4, CCR5, and an integrated HIV promoter (LTR) fused to firefly luciferase. Untransfected cells (LTR) or Tat-transfected cells (LTR+TAT) were incubated with Compound 9 at the indicated doses at the time of transfection. DMSO was used as a negative control. Luciferase activity was measured 20 hours post-transfection using a commercially-available luciferase substrate (Promega) and the results are shown in FIG. 8. […] Repeat results are illustrated in Tat-Experiment 2 graph.

[6] = system: single cycle HIV in SupT1 cells
Description: HIV-integration was evaluated in a cell based assay with ALU-PCR read out. Using single cycle virus (Env-deficient, containing Luc, pseudotyped with VSV-g), SupT1 cells were infected for 36 hours. Cells were treated with DMSO, Raltegravir (integrase inhibitor), 500 nM Compound 9, or Nelfinavir (protease inhibitor). It was expected that Raltegravir should affect both Luc and ALU-PCR data and Nelfinavir should not (downstream of both). Cells were split in half-one part for Luc-assays, and one part for ALU-PCR.

## CC1(C)CC(=O)c2c(C(F)(F)F)nn(-c3ccc(C(N)=O)c(N[C@H]4CC[C@H](O)CC4)c3)c2C1 [Compound 9, 4-(6,6-Dimethyl-4-oxo-3-trifluoromethyl-4,5,6,7-tetrahydro-indazol-1-yl)-2-(trans-4-hydroxy-cyclohexylamino)-benzamide]
[1]; HIV-1Ba-L in PBMCs
  IC 95% (95% inhibition of virus replication): 11 nM
[1]; HIV-1Ba-L in PBMCs, 50%
  Selectivity Index TI (TC50/IC50): 1.5
[1]; HIV-1Ba-L in PBMCs, TC90/IC90
  Selectivity index (TI) 90%: >22.1
[1]; HIV-1Ba-L in PBMCs, TC95/IC95
  Selectivity index (TI) 95%: >18.2
[1]; Human immunodeficiency virus 1, PBMC, 168 h, read-out: Antiviral Activity IC50 (50% inhibition of virus replication), HIV-1Ba-L in PBMCs, seven days
  IC50: 20 nM
[1]; Human immunodeficiency virus 1, PBMC, read-out: IC 90% (90% inhibition of virus replication)
  IC90: 90 nM
[2]
  Activity against hepatitis B virus (in words): inactive
[2]; HBV in HepG2 2.2.15
  Selectivity Index TI (TC50/IC50): 0.12
[2]; Hepatitis B virus, 144 h, HBV in HepG2 2.2.15, six days, read-out: Antiviral Activity IC50 (reduction in HBV DNA levels)
  IC50: 600 nM
[2]; Hepatitis B virus, HBV in HepG2 2.2.15
  IC90: > 2000 nM
[3]
  CC50 at 6 days: 73 nM
[4]
  EC50: 10 nM
[5]
  Tat-mediated transactivation: inhibit
[6]
  Integration of HIV-1 viral DNA into host cell: inhibit
[6]; 500 nM, SupT1 cells infected 36 hours
  Reduction of single cycle HIV: at least 90%
